Assay results reported in publication PMC5011342, “A high throughput drug screening assay to identify compounds that promote oligodendrocyte differentiation using acutely dissociated and purified oligodendrocyte precursor cells” (BMC Research Notes, 2016).
Where two headings read alike, the source gives them in different places.

How the values were obtained:
[1] = tested on: expanded OPCs; test: cells; settings: for viability at 0.1 µM / viability at 1 µM / viability at 10 µM: Rattus norvegicus, 72 h; for 0.1 µM (% DMSO) / 1 µM (% DMSO) / 10 µM (% DMSO): alamarBlue viability of expanded OPCs; for 0.1 µM (% DMSO): compound at 0.1 µM; for 1 µM (% DMSO): compound at 1 µM; for 10 µM (% DMSO): compound at 10 µM
Description: Having established a consistent assay for measuring OL differentiation in vitro, the next step was to utilize this assay to assess the ability of a wide array of compounds to promote OL differentiation. Prior to library screening, we first established the maximum non-toxic dose of each compound in the library. […] Therefore, we added each compound in the NIH clinical collection (NCC) library to OPCs at 10, 1, and 0.1 µM concentrations. Three days later, we assessed viability of the treated cells by measuring AlamarBlue fluorescence, a measure of cell viability (see “Methods” section). […] Appropriately, we established three sets of screening concentrations for library compounds: non-toxic compounds were tested at 10 and 2 µM, slightly toxic compounds (only toxic at 10 µM) were tested at 2 and 0.4 µM, and very toxic compounds were tested at 0.4 and 0.08 µM.
OPCs were expanded in vitro by seeding into PDL-coated tissue culture flasks at 1000–2000 cells/cm^2 in differentiation media supplemented with 10 ng/ml PDGF-AA. Proliferating OPCs were fed every 2–3 days and supplemented with 2–3× concentration of PDGF as needed to prevent OPC differentiation. After 6–7 days of proliferation, OPCs were harvested by trypsinization, plated into PDL-coated 96-well Falcon plates and centrifuged at 200×g to facilitate cell attachment, survival, and even distribution of cells. Expanded OPCs were seeded in differentiation media at 10,000 cells/well and incubated for 2 h at 37 °C, 10 % CO2 prior to addition of compounds. The NCC library was diluted and added to cells at 10, 1, and 0.1 µM; each concentration was tested in quadruplicate. As a positive control for the induction of toxicity, 5 ng/ml tunicamycin was added to 8 wells in each plate. Three days later, a 1:10 dilution of alamarBlue® (AB) was added to each well and cells were incubated 4 h at 37 °C, 10 % CO2. AB fluorescence was measured using a PerkinElmer Victor II fluorescence microplate reader (PerkinElmer, Waltham, MA) with 560 nm excitation/590 nm emission filters. For library screening, the highest concentration of each compound was adjusted to a minimally toxic concentration based on this toxicity data. Compounds were additionally tested at a second concentration that was 1/5th of the top concentration. The final concentration of DMSO in each well was 0.1 %.

[2] = tested on: acutely dissociated and purified rat OPCs; test: Acute OL differentiation assay (MBP expression/cell, immunofluorescent image quantification); assay type: cell-based; settings: sheet "All OLga data"
Method in brief: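 This acute differentiation assay used purified rat OPCs from postnatal day 6–7 pups, seeded into PDL/laminin-coated 96-well plates in differentiation medium lacking PDGF and FGF. Compounds were applied in quadruplicate after a 1–2 h preincubation at 37 °C, 10 % CO2, with 0.1 % DMSO negative and 40 ng/ml T3 positive controls in eight wells. After fixation on DIV4, anti-MBP immunofluorescence images yielded MBP expression/cell.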

[3] = read-out: 0.1 µM (% DMSO), alamarBlue viability of expanded OPCs, compound at 0.1 µM, sheet All Tox data
[4] = read-out: 1 µM (% DMSO), alamarBlue viability of expanded OPCs, compound at 1 µM, sheet All Tox data
[5] = read-out: 10 µM (% DMSO), alamarBlue viability of expanded OPCs, compound at 10 µM, sheet All Tox data
[6] = Rattus norvegicus, 2 uM test compound, relative to quetiapine, read-out: OL differentiation, 2 uM (% Quet)
[7] = Rattus norvegicus, 10 uM test compound, relative to quetiapine, read-out: OL differentiation, 10 uM (% Quet)
[8] = read-out: 0.1 µM (% DMSO), alamarBlue viability, NCC library compound at 0.1 µM, sheet "All Tox data"
[9] = read-out: 1 µM (% DMSO), alamarBlue viability, NCC library compound at 1 µM, sheet "All Tox data"
[10] = read-out: 10 µM (% DMSO), alamarBlue viability, NCC library compound at 10 µM, sheet "All Tox data"
[11] = Rattus norvegicus, test compound at 2 uM, NCC library screen, relative to quetiapine, read-out: 2 uM (% Quet)
[12] = Rattus norvegicus, test compound at 10 uM, NCC library screen, relative to quetiapine, read-out: 10 uM (% Quet)
[13] = Rattus norvegicus, test compound at 2 uM, MBP expression relative to quetiapine, NCC library screen, read-out: 2 uM (% Quet)
[14] = Rattus norvegicus, test compound at 10 uM, MBP expression relative to quetiapine, NCC library screen, read-out: 10 uM (% Quet)

Cc1nnc2n1-c1ccc(Cl)cc1C(c1ccccc1)=NC2 [Alprazolam]
viability at 0.1 µM [1, 3]: 102% | viability at 1 µM [1, 4]: 115% | viability at 10 µM [1, 5]: 139% | activation at 2 µM [2, 6]: -12.2% | activation at 10 µM [2, 7]: -116%

CCCCC[C@H](O)/C=C/[C@H]1[C@H](O)CC(=O)[C@@H]1CCCCCCC(=O)O [Alprostadil]
viability at 0.1 µM [1, 8]: 84.4% | viability at 1 µM [1, 9]: 85.6% | viability at 10 µM [1, 10]: 81.6% | activation at 2 µM [2, 11]: -7.2% | activation at 10 µM [2, 12]: -67.6%

O=C(c1ccc(F)cc1)C1CCN(CCn2c(=S)[nH]c3ccccc3c2=O)CC1 [Altanserin]
viability at 0.1 µM [1, 8]: 107% | viability at 1 µM [1, 9]: 94.1% | viability at 10 µM [1, 10]: 56% | activation at 2 µM [2, 6]: -4% | activation at 10 µM [2, 7]: -10%

CN(C)c1nc(N(C)C)nc(N(C)C)n1 [Altretamine]
viability at 0.1 µM [1, 8]: 94.2% | viability at 1 µM [1, 9]: 87.4% | viability at 10 µM [1, 10]: 85% | activation at 2 µM [2, 11]: -1.1% | activation at 10 µM [2, 12]: -13.9%

NC12CC3CC(CC(C3)C1)C2 [Amantadine]
0.1 µM (% DMSO) ([1]; relative to DMSO control): 89.6 % DMSO | 1 µM (% DMSO) ([1]; relative to DMSO control): 86.9 % DMSO | 10 µM (% DMSO) ([1]; relative to DMSO control): 77.6 % DMSO | activation at 2 µM [2, 11]: -21.4% | activation at 10 µM [2, 12]: -19.9%

CC(=O)OCC(=O)[C@@]12OC3(CCCC3)O[C@@H]1C[C@H]1[C@@H]3CCC4=CC(=O)C=C[C@]4(C)[C@@]3(F)[C@@H](O)C[C@@]12C [Amcinonide]
0.1 µM (% DMSO) ([1]; relative to DMSO control): 113.8 % DMSO | 1 µM (% DMSO) ([1]; relative to DMSO control): 123.7 % DMSO | 10 µM (% DMSO) ([1]; relative to DMSO control): 114.6 % DMSO | activation at 2 µM [2, 13]: 18.1% | activation at 10 µM [2, 14]: -10.2%

CC1(C)S[C@@H]2[C@H](/N=C/N3CCCCCC3)C(=O)N2[C@H]1C(=O)O [Amdinocillin]
viability at 0.1 µM [1, 3]: 89.7% | viability at 1 µM [1, 4]: 98.8% | viability at 10 µM [1, 5]: 102% | activation at 2 µM [2, 6]: -15.6% | activation at 10 µM [2, 7]: 5.8%

N=C(N)NC(=O)c1nc(Cl)c(N)nc1N [Amiloride]
viability at 0.1 µM [1, 3]: 82.2% | viability at 1 µM [1, 4]: 83.7% | viability at 10 µM [1, 5]: 90.8% | activation at 2 µM [2, 6]: -5.9% | activation at 10 µM [2, 7]: -0.4%

CCC1(c2ccc(N)cc2)CCC(=O)NC1=O (centres unmarked) [Aminoglutethimide]
0.1 µM (% DMSO) ([1]; relative to DMSO control): 94.4 % DMSO | 1 µM (% DMSO) ([1]; relative to DMSO control): 89.6 % DMSO | 10 µM (% DMSO) ([1]; relative to DMSO control): 84.0 % DMSO | activation at 2 µM [2, 13]: -11% | activation at 10 µM [2, 14]: -7.7%

NCC(=O)CCC(=O)O [Aminolevulinic Acid]
viability at 0.1 µM [1, 8]: 96% | viability at 1 µM [1, 9]: 86.7% | viability at 10 µM [1, 10]: 73.4% | activation at 2 µM [2, 11]: 5.1% | activation at 10 µM [2, 12]: -16.1%

CCCCc1oc2ccccc2c1C(=O)c1cc(I)c(OCCN(CC)CC)c(I)c1 [Amiodarone]
viability at 0.1 µM [1, 8]: 74.9% | viability at 1 µM [1, 9]: 8.8% | viability at 10 µM [1, 10]: 8.6% | activation at 0.08 µM ([2]; Rattus norvegicus, test compound at 0.08 uM, NCC library screen, relative to quetiapine, read-out: 0.08 uM (% Quet)): 44.2%

Nc1c2c(nc3c1CCC3)CCCC2 [Amiridine]
0.1 µM (% DMSO) ([1]; sheet All Tox data): 87.3 % DMSO | 1 µM (% DMSO) ([1]; sheet All Tox data): 86.4 % DMSO | 10 µM (% DMSO) ([1]; sheet All Tox data): 89.5 % DMSO | OL differentiation, 2 uM (% Quet) ([2]; 2 uM test compound, relative to quetiapine): 7.6 % Quet | OL differentiation, 10 uM (% Quet) ([2]; 10 uM test compound, relative to quetiapine): 34.5 % Quet
